# Test results taken from US7592188B2, “Live cell biosensors” (The Scripps Research Institute, priority 2004, dated 2009).
# Entries after “also recorded” stand apart in the source; their conditions may differ.
# B1: MeroCBD (conjugate)
# chain: DIQNPDITSSRYRGLPAPGPSPADKKRSGKKKISKADIGAPSGFKHVSHVGWDPQNGFDVNNLDPDLRSLCSRAGISEAQLTDAETSKLIYDFIEDQGGLEAVRQEMRRQEPLP
# modifications: left off: large carriers
# B2: labeled WASP fragment: WASP fragment (residues 201-320, F271C) derivatized with S—SO dye 2e (conjugate)
# chain: DIQNPDITSSRYRGLPAPGPSPADKKRSGKKKISKADIGAPSGFKHVSHVGWDPQNGFDVNNLDPDLRSLCSRAGISEAQLTDAETSKLIYDFIEDQGGLEAVRQEMRRQEPLPPPPPPS
# modifications: left off: small tags and cut ends
# notes: WASP fragment (residues 201-320, F271C) derivatized with S—SO dye 2e
# B3: I—SO-WASP biosensor: I—SO dye attached at position F271C of the WASP fragment (conjugate)
# chain: DIQNPDITSSRYRGLPAPGPSPADKKRSGKKKISKADIGAPSGFKHVSHVGWDPQNGFDVNNLDPDLRSLCSRAGISEAQLTDAETSKLIYDFIEDQGGLEAVRQEMRRQEPLPPPPPPS
# modifications: left off: small tags and cut ends
# notes: I—SO dye attached at position F271C of the WASP fragment
# Tests used:
# [1] = Dye photo-bleaching under tungsten lamp irradiation; format: physicochemical
# Description: Photo-bleaching. All samples contained 1 mM dye in a final volume of 10 mL. For nitrogen and oxygen saturation the samples were bubbled with solvent-saturated gas for 30 min. A 90 W halogen tungsten lamp was employed for irradiation, with a fan used for cooling. The temperature of samples was 25±1° C. during reactions. The absorption spectrum of each sample was measured before irradiation and after every 10 h period. For the trapping experiment thioanisole (1.0 M) was added to oxygen-saturated butanol solution of dye 1b. After 60 h of irradiation the reaction mixture was analyzed by GC-MS for products formed. The products, methylphenylsulfoxide and methylphenyl sulfone, were identified by comparison with authentic samples.
# Dyes used in living cells must be photostable to provide many sequential images and to obtain sufficient light from minimal amounts of exogenous labeled material. The photostability of the new dyes was characterized by exposing them to constant illumination from a tungsten lamp filtered through glass, a broad spectrum light source that provided essentially equal intensity throughout the spectral range where the dyes would be irradiated in vivo. A fan was used to prevent heating, and dye solutions were adjusted for equal maximal absorbance, kept below 1 μM to minimize the inner filter effect. […] Photo-bleaching followed first-order kinetics in all cases.
# Cdc42 [2] = biological target: T1, Cdc42 (Homo sapiens, UniProt P60953); assay: Analysis of Cdc42 activation: fluorescence of dye-labeled WASP fragment; format: binding
# T1 construct: 6His; made in house; host or cells: E. coli BL21DE3, only by the words 'analogous procedures' to the CBD preparation
# Description: Analysis of Cdc42 Activation. A solution of the WASP conjugate (300 nM) in a assay buffer (50 mM Tris-HCl, pH 7.6, 50 mM NaCl, 5 mM MgCl2, 1 mM DTT) was mixed 1:1 (v/v) with solutions of Cdc42, pre-equilibrated with 10 mM GDP or GTPγS as described below. Emission at 630 nm and excitation at 600 nm were used to acquire excitation and emission spectra, respectively. For nucleotide dependence, Cdc42 (500 nM) was preincubated with varying concentrations of GTPγS (1-500 nM).
# [3] = Water solubility and aggregation of dyes in water (absorbance spectra); settings: in water, absorbance spectrum
# Source text: Labeling was accomplished only by including greater than 5% DMSO as cosolvent.
# Erk2 = assay: Fluorescence response of dye-labeled Erk2 to phosphorylation; format: biochemical
# Source text: This Example illustrates that the dyes of the invention can be attached directly to a protein of interest (e.g. Erk), where the dyes respond to conformational changes and phosphorylation. In particular, the I-TBA-3CNPh dye was attached to cysteine 214 of the MAP kinase Erk2, where it responded to Erk phosphorylation. A structure for the I-TBA-3CNPh dye is provided below.
# This model was based on tryptic digestion combined with mass spectroscopic sequencing of the labeled protein, and on docking studies. The lighter (yellow) residues represent two lysines undergoing hydrogen bonding with the dye, and a tryptophan interacting through π-π stacking. Phosphorylation of the purple residues altered the conformation of the protein, affecting the tryptophan interaction and perturbing some of the hydrogen bonds.
# [4] = Photophysical properties of dyes in various solvents (absorbance, emission, quantum yield); format: physicochemical; parameters: ε × F / ε × Φ: unit not given here
# Description: Analytical grade reagents were purchased from major suppliers. […] Emission and excitation spectra were obtained using a Spex Fluorolog 2 spectrofluorometer at 23° C. […] Demas et al., J. Phys. […] All operations with dyes were performed under dim light. Flasks containing dyes were wrapped with aluminum foil.
# [5] = Quantum yield of triplet state formation; format: physicochemical; settings: in ethanol
# Rho kinase = assay: Extension and retraction of protrusions with Rho kinase inhibitor; format: cell-based
# Source text: These possibilities were distinguished by blocking retraction using an inhibitor of Rho kinase (Y27632).
# Cdc42 [6] = assay: MeroCBD biosensor imaging of Cdc42 activation in living cells; format: cell-based; settings: in words
# Source text: The I—SO labeled WASP fragment provided a straightforward means to assay Cdc42 activation in cell lysates. By simply adding the biosensor to the lysate, the fluorescence readout of Cdc42 activation. This method was used to determine the kinetics of Cdc42 activation in neutrophils after stimulation with chemoattractant fMetLeuPhe (FMLP) peptide. Results obtained paralleled those previously reported using well-established methods (Benard et al., J. Biol. Chem. 275: 36457 (2000). Fluorescence of the biosensor was also used to monitor the real-time kinetics of Cdc42 GDP/GTP exchange in vitro. Because the labeled WASP fragment responded to activated Cdc42 through fluorescence intensity modulation, a ratiometric imaging approach was used to correct for effects of varying cell thickness, uneven illumination, and other factors that could affect imaging of dye intensity (Bright et al., Methods Cell Biol. 14: 157 (1989). The biosensor was fused to enhanced green fluorescent protein (EGFP) to provide a fluorescence signal insensitive to Cdc42 binding, but with the same subcellular distribution as the sensitive dye. The dye image could be divided by the EGFP image to normalize changes in dye intensity not originating from Cdc42 binding. […] Fluorescence response and Cdc42 binding of the biosensor remained intact after these modifications. […]
# Rac = biological target: T2, Rac (Homo sapiens, UniProt P63000); assay: Specificity of I-SO WASP biosensor for activated GTPases; format: binding; settings: concentrations well above physiological levels
# T2 construct: 6His; made in house; host or cells: E. coli BL21DE3, only by the words 'analogous procedures'
# Description: (§1) Further studies were conducted using the I—SO dye 4b attached at position F271 C of the WASP fragment. This biosensor had properties similar to the S—SO biosensor described above. […] To determine the specificity of the biosensor, interactions with different activated GTPases were examined. The biosensor distinguished proteins closely related to Cdc42 from other members of the Rho family.
# RhoA = biological target: T3, RhoA (Homo sapiens, UniProt P61586); assay: as above; format: binding; settings: concentrations well above physiological levels
# T3 construct: 6His; made in house; host or cells: E. coli BL21DE3, only by the words 'analogous procedures'
# Description: as §1
# TC10 = TC10 (Homo sapiens, UniProt P17081); assay: as above; format: binding
# Description: as §1
# T1 sequence (P60953 whole entry, species assumed, the tested form may be a part): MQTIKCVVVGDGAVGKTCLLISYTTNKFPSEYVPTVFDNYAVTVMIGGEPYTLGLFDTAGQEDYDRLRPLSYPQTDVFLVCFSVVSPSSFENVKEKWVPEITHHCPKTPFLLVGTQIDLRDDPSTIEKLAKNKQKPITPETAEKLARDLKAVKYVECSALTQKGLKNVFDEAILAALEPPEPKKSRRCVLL
# T3 sequence (P61586 whole entry, species assumed): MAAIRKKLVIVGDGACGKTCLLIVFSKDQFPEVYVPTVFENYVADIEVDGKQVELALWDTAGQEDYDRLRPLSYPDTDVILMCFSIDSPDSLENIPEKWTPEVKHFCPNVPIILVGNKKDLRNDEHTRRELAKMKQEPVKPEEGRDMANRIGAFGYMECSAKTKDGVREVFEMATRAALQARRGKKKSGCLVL
# TC10, sequence (P17081 whole entry, species assumed): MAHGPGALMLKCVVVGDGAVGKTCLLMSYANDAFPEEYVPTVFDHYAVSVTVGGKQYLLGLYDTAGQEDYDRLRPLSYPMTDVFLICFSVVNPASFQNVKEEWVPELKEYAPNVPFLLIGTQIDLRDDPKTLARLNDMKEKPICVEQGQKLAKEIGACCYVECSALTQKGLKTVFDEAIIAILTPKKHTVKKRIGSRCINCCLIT
molecule,measurement,setting,value
"CCN1/C(=C/C=C/C=C/C2=[N+](CCCCCC(=O)O)c3ccc(S(=O)(=O)O)cc3C2(C)C)C(C)(C)c2cc(S(=O)(=O)[O-])ccc21 [Cy5, reference compound]","Absolute rate constant of dye photo-bleaching, kph × 10^6",[1]; BuOH,0.77 s^−1
same,"Absolute rate constant of dye photo-bleaching, kph × 10^6",[1]; MeOH,1.0 s^−1
same,change in fluorescence intensity of cyanine-labeled WASP fragment,"Cdc42 [2]; control experiments, WASP fragment labeled with Cy3 or Cy5",no change in fluorescence intensity was observed
"Sodium 3-{(2Z)-5-2-[(2E,4Z)-4-(1,1-Dioxido-3-oxo-1-benzothien-2(3H)-ylidene)but-2-enylidene]-3,3-dimethyl-2,3-dihydro-1H-indol-1-yl}propane-1-sulfonate [dye 4b]",concentration at which dye did not aggregate,[3],greater than 250 μM
CC1(C)/C(=C\C=C\C=C2C(=O)N(Cc3cccc(C#N)c3)C(=S)N(Cc3cccc(C#N)c3)C2=O)N(CCCNC(=O)CI)c2ccc(S(=O)(=O)O)cc21 [I-TBA-3CNPh],fluorescence change of dye-labeled Erk2,Erk2; incubation with MEK kinase and ATP,phosphorylation-induced increase in fluorescence
"CN1C(=O)C(=C/C=C/C=C2\N(C)c3ccccc3C2(C)C)C(=O)N(C)C1=S [dye 3a, 1,3-Dimethyl-2-thioxo-5-[(2E,4Z)-4-(1,3,3-trimethyl-1,3-dihydro-2H-indol-2-ylidene)but-2-enylidene]dihydropyrimidine-4,6(1H,5,H)-dione]",Abs. λmax,[4]; solvent BuOH,589 nm
same,Emission λmax,[4]; solvent BuOH,609 nm
same,Φ (quantum yield of fluorescence),[4]; solvent BuOH,0.61
same,ε (molar extinction coefficient),[4]; solvent BuOH,(190000)
same,ε × F,[4]; solvent BuOH,116000
same,Abs. λmax,[4]; solvent C6H6,584 nm
same,Emission λmax,[4]; solvent C6H6,605 nm
same,Φ (quantum yield of fluorescence),[4]; solvent C6H6,0.20
same,ε (molar extinction coefficient),[4]; solvent C6H6,(127000)
same,ε × F,[4]; solvent C6H6,26000
same,Abs. λmax,[4]; solvent DMF,589 nm
same,Emission λmax,[4]; solvent DMF,611 nm
same,Φ (quantum yield of fluorescence),[4]; solvent DMF,0.94
same,ε (molar extinction coefficient),[4]; solvent DMF,(183000)
same,ε × F,[4]; solvent DMF,172000
same,Abs. λmax,[4]; solvent MeOH,583 nm
same,Emission λmax,[4]; solvent MeOH,603 nm
same,Φ (quantum yield of fluorescence),[4]; solvent MeOH,0.26
same,ε (molar extinction coefficient),[4]; solvent MeOH,(173000)
same,ε × F,[4]; solvent MeOH,45000
same,Abs. λmax,[4]; solvent OcOH,590 nm
same,Emission λmax,[4]; solvent OcOH,609 nm
same,Φ (quantum yield of fluorescence),[4]; solvent OcOH,0.99
same,ε (molar extinction coefficient),[4]; solvent OcOH,(180000)
same,ε × F,[4]; solvent OcOH,178000
same,"Absolute rate constant of dye photo-bleaching, kph × 10^6",[1]; BuOH,0.78 s^−1
same,"Absolute rate constant of dye photo-bleaching, kph × 10^6",[1]; MeOH,0.18 s^−1
same,"ΦT, quantum yield of triplet state formation",[5],0.003
labeled Erk2 protein: MAP kinase Erk2 with I-TBA-3CNPh dye attached to cysteine 214,phosphorylation activity of labeled Erk2,"Erk2; Western blots, substrate Elk",retains phosphorylation activity
C[C@@H](N)[C@H]1CC[C@H](C(=O)Nc2ccncc2)CC1 [Y27632],effect on protrusions,Rho kinase,caused protrusions to continue expanding even after Cdc42 activity decreased
"CCN1/C(=C\C=C\C=C2C(=O)N(C)C(=S)N(C)C2=O)Sc2ccccc21 [dye 1b, 1,3-Dimethyl-5-[(2E,4E)-4-(3-ethyl-1,3-benzothiazol-2(3H)-ylidene)-but-2-enylidene]-2-thioxodihydropyrimidine-4,6(1H,5H)-dione]",Abs. λmax,[4]; solvent BuOH,595 nm
same,Emission λmax,[4]; solvent BuOH,613 nm
same,Φ (quantum yield of fluorescence),[4]; solvent BuOH,0.26
same,ε (molar extinction coefficient),[4]; solvent BuOH,(188000)
same,ε × F,[4]; solvent BuOH,49000
same,Abs. λmax,[4]; solvent C6H6,600 nm
same,Emission λmax,[4]; solvent C6H6,617 nm
same,Φ (quantum yield of fluorescence),[4]; solvent C6H6,0.37
same,ε (molar extinction coefficient),[4]; solvent C6H6,(184000)
same,ε × F,[4]; solvent C6H6,68000
same,Abs. λmax,[4]; solvent DMF,595 nm
same,Emission λmax,[4]; solvent DMF,613 nm
same,Φ (quantum yield of fluorescence),[4]; solvent DMF,0.32
same,ε (molar extinction coefficient),[4]; solvent DMF,(194000)
same,ε × F,[4]; solvent DMF,62000
same,Abs. λmax,[4]; solvent MeOH,583 nm
same,Emission λmax,[4]; solvent MeOH,606 nm
same,Φ (quantum yield of fluorescence),[4]; solvent MeOH,0.13
same,ε (molar extinction coefficient),[4]; solvent MeOH,(134000)
same,ε × F,[4]; solvent MeOH,18000
same,Abs. λmax,[4]; solvent OcOH,598 nm
same,Emission λmax,[4]; solvent OcOH,615 nm
same,Φ (quantum yield of fluorescence),[4]; solvent OcOH,0.52
same,ε (molar extinction coefficient),[4]; solvent OcOH,(220000)
same,ε × F,[4]; solvent OcOH,115000
same,"Absolute rate constant of dye photo-bleaching, kph × 10^6",[1]; BuOH,5.2 s^−1
same,"Absolute rate constant of dye photo-bleaching, kph × 10^6",[1]; MeOH,4.3 s^−1
same,"ΦT, quantum yield of triplet state formation",[5],0.008
B1,Cdc42 activation reported by biosensor in living cells,Cdc42 [6],showed localized Cdc42 activation even in unstimulated cells; also recorded: consistently showed activation in the trans-Golgi apparatus of endothelial cells
B2,increase in fluorescence intensity,Cdc42 [2]; incubated with activated Cdc42,300%
B3,interaction with Rac,Rac,did not interact
same,interaction with RhoA,RhoA,did not interact
same,response to TC10,TC10,responded
